What was measured:
T4 viral receptors = T4 viral receptors (Homo sapiens, UniProt P01730); assay: Activity of cysteine-extended core peptide (test not specified)
HTLV-III virus (HIV) = assay: Blockade of viral infection of human T cells (reverse transcriptase activity); format: cell-based; conditions: FIG. 3; for rank order of potencies in inhibiting viral infectivity: four peptides
Protocol: Separation of T-Lymphocyte Subsets. Subsets of T cells were obtained by treatment of PERCOLL density-purified peripheral blood T cells with specific monoclonal antibodies (T4 or T8) at 10 μg/ml. The treated cells were then panned (21) on a plastic Petri dish that was coated with goat [F(ab')2 ] anti-mouse immunoglobulin (Sero Lab, Eastbury, Mass.) for 30 min at 4° C. The nonadherent cells were then removed, washed, and analyzed for reactivity by flow cytometry. The separated T4 and T8 cell populations have <5% contamination of other T-cell subsets. Cells were then cultured with phytohemagglutinin (1 μg/ml) for 72 hr and exposed to HIV as described below. Infected cells were phenotypically characterized when cytotoxicity assays were performed.
Virus Infection. The HTLV-III virus used for infection was isolated from an interleukin 2 (IL-2)-dependent cultured T-cell line established from fresh AIDS patient material and passaged into HuT 78, a permissive IL-2-independent cell line.

[1] = test system: T4 antigen (gp120 receptor) on fresh rat hippocampal membranes; assay: Displacement of specific 125I-gp120 binding to brain membranes; conditions: for rank order of potencies in inhibiting receptor binding: four peptides; for potency compared with peptide T (in words): FIG. 3
Protocol: HTLV-IIIb isolate of HIV was propaged in H9 cells, and the gp120 was isolated by immunoaffinity chromatography and preparative NaDodSO4 /PAGE. Purified gp120 was labeled with ^125 I by the chloramine-T method.
Fresh human, monkey, and rat hippocampus were quickly homogenized (POLYTRON, Brinkmann Instruments) in 100 vol of ice-cold 50 mM Hepes (pH 7.4). The membranes collected by centrifugation (15,000×g) were washed in the original buffer volume and were used fresh or stored at -70° C. Before use, brain membranes and highly purified T cells (ref. 16; gift of Larry Wahl) were preincubated for 15-30 min in phosphate-buffered saline (PBS). Membranes derived from 2 mg (initial wet weight) of brain (.chi.100 μg of protein) were incubated with 28,000 cpm of ^125 I-gp120 for 1 hr at 37° C. in 200 μl (final volume) of 50 mM Hepes containing 0.1% bovine serum albumin and the peptidase inhibitors bacitracin (0.005%), aprotinin (0.005%), leupeptin (0.001%), and chymostatin (0.001%). Incubations were rapidly vacuum-filtered and counted to determine the receptor-bound material.

| Compound | activity (in words) (T4 viral receptors) | rank order of potencies in inhibiting viral infectivity (HTLV-III virus (HIV)) | blockade of viral infectivity (in words) (HTLV-III virus (HIV); human T cells) | inhibition of gp120 binding to brain membranes (in words) [1] | rank order of potencies in inhibiting receptor binding [1] | concentration range at which 125I-gp120 binding is significantly inhibited ([1]; fresh rat hippocampal membranes, FIG. 2C) [nM] | potency compared with peptide T (in words) [1] |
| --- | --- | --- | --- | --- | --- | --- | --- |
| CYS-THR-THR-ASN-TYR-THR-CYS (CTTNYTC; printed: CYS-THR-THR-ASN-TYR-THR-CYS) | active |  |  |  |  |  |  |
| C[C@H](N)C(=O)N[C@@H](CO)C(=O)N[C@H](C(=O)N[C@H](C(=O)N[C@H](C(=O)N[C@@H](CC(N)=O)C(=O)N[C@@H](Cc1ccc(O)cc1)C(=O)N[C@H](C(=O)O)[C@@H](C)O)[C@@H](C)O)[C@@H](C)O)[C@@H](C)O [peptide T] |  | D-[Ala]1 -peptide T-amide>D-[Ala]1 -peptide T>peptide T>D-[Thr]8 -peptide T-amide | blocked | inhibit binding of gp 120 to the brain membranes | D-[Ala]1 -peptide T-amide>D-[Ala]1 -peptide T>peptide T>D-[Thr]8 -peptide T-amide | ~0.1 |  |
| C[C@@H](N)C(=O)N[C@@H](CO)C(=O)N[C@H](C(=O)N[C@H](C(=O)N[C@H](C(=O)N[C@@H](CC(N)=O)C(=O)N[C@@H](Cc1ccc(O)cc1)C(=O)N[C@H](C(N)=O)[C@@H](C)O)[C@@H](C)O)[C@@H](C)O)[C@@H](C)O [D-[Ala]1-peptide T-amide] |  | D-[Ala]1 -peptide T-amide>D-[Ala]1 -peptide T>peptide T>D-[Thr]8 -peptide T-amide |  |  | D-[Ala]1 -peptide T-amide>D-[Ala]1 -peptide T>peptide T>D-[Thr]8 -peptide T-amide |  | somewhat greater potency |
| substance P [1-8]: irrelevant octapeptide substance P [1-8] (RPKPQQFF; Substance P; UniProt P20366 58-65, looked up, fragment) [reference compound] |  |  |  | not |  |  |  |
| C[C@@H](N)C(=O)N[C@@H](CO)C(=O)N[C@H](C(=O)N[C@H](C(=O)N[C@H](C(=O)N[C@@H](CC(N)=O)C(=O)N[C@@H](Cc1ccc(O)cc1)C(=O)N[C@H](C(=O)O)[C@@H](C)O)[C@@H](C)O)[C@@H](C)O)[C@@H](C)O [D-[Ala]1-peptide T] |  | D-[Ala]1 -peptide T-amide>D-[Ala]1 -peptide T>peptide T>D-[Thr]8 -peptide T-amide |  |  | D-[Ala]1 -peptide T-amide>D-[Ala]1 -peptide T>peptide T>D-[Thr]8 -peptide T-amide |  | consistently more potent |

— patent publication US5834429A, “Small peptides which inhibit binding to T-4 receptors and act as immunogens” (priority 1993, dated 1998)
